# Results as given in US10507206B2, “Oral formulations and lipophilic salts of methylnaltrexone” (Wyeth, LLC, priority 2010, dated 2019).
# Experiments:
# [1] = apparent octanol-water partition coefficient (APC) of MNTX salts by HPLC; format: physicochemical; details: 1-octanol/water, aqueous phase pH between 4.5 and 6.8; for Log P: room temperature; for APC: shaken overnight at room temperature
# From the text: The term “apparent partition coefficient,” as used herein, refers to the ratio of concentrations of a compound in any form in the two phases of a mixture of two immiscible solvents at equilibrium. In certain embodiments, the two immiscible solvents are octanol and water. The apparent partition coefficient may be determined under various conditions, for example, temperature, pH, concentration, etc. Apparent partition coefficients have been found useful in estimating the distribution of compounds in the body. Higher apparent partition coefficients denote a more hydrophobic (more lipophilic) compound, while lower apparent partition coefficients denote a hydrophilic compound. The apparent partition coefficient of a compound may be determined by procedures known in the art, for example, in the U.S. Pharmacopeia. The apparent partition coefficient may be determined by the procedure used to determine the apparent partition coefficients of methylnaltrexone dodecyl sulfate and methylnaltrexone heptyl sulfate in the Examples.
# As a measure of lipophilicity of the resulting ion pair, a solution of the composition yields an apparent octanol/water partition coefficient for methylnaltrexone of at least 0.25 at a pH between 1 and 4. The apparent octanol/water partition coefficient as used herein is determined at room temperature at a concentration of approximately 0.5 mg/mL. Exemplary methods for the determination of apparent octanol/water partition coefficient of methylnaltrexone salts are described in the Examples below.
# Ion pairs of methylnaltrexone with amphiphilic pharmaceutically acceptable excipients were prepared and the apparent octanol-water partition coefficient (APC) was measured and compared to that of methylnaltrexone bromide. A pre-determined amount of each of MNTX-heptyl sulfate and MNTX-dodecyl sulfate was dissolved in 2 mL of 1-octanol that was saturated with water. Two mL of water that was saturated with 1-octanol was added to each MNTX salt solution. The mixtures were shaken overnight at room temperature, and 1 mL of the 1-octanol phase was then diluted to 10 mL with the mobile phase used for chromatographic (HPLC) analysis of the samples. And 1 mL of the aqueous phase was diluted to 5 mL with the mobile phase. The samples were then analyzed by HPLC to determine the apparent partition coefficient and log P for each MNTX salt. The pH of the aqueous phases for each of the salts was between 4.5 and 6.8.
# [2] = reported value for comparison; cited from earlier work
# [3] = system: constipation in methadone maintenance patients; details: intravenous 0.01-0.37 mg/kg; cited from earlier work
# [4] = intravenous 0.01-0.37 mg/kg, methadone maintenance patients; cited from earlier work
# [5] = oral, in general; cited from earlier work
compound,measurement,setting,value
"CCCCCCCOS(=O)(=O)[O-].C[N+]1(CC2CC2)CCC23c4c5ccc(O)c4OC2C(=O)CCC3(O)C1C5 (stereo not shown) [MNTX-heptyl sulfate, methylnaltrexone heptyl sulfate]",Log P,[1],0.292
same,APC,[1],1.961
"C[N@+]1(CC2CC2)CC[C@]23c4c5ccc(O)c4O[C@H]2C(=O)CC[C@@]3(O)[C@H]1C5.[Br-] [MNTX, (R)—N-(cyclopropylmethyl) noroxymorphone methobromide]",reported Log P,[2],−1.605
same,reported partition coefficient,[2],0.025
"C[N+]1(CC2CC2)CC[C@]23c4c5ccc(O)c4O[C@H]2C(=O)CC[C@@]3(O)[C@H]1C5 (stereo partly drawn) [methylnaltrexone, (R)—N-methylnaltrexone]",laxation,[3],induced “immediate” laxation
same,average peak plasma levels,[4],162 ng/mL
same,"peak plasma levels, range",[4],30 to 774 ng/mL
same,methylnaltrexone absorbed into the bloodstream when delivered orally,[5],less than 5%
methylnaltrexone dodecyl sulfate [MNTX-dodecyl sulfate],Log P,[1],1.505
same,APC,[1],32.014
